Consider 90 compounds from a melting point compilation (Tetko et al.; mined from patent text by program, amines drawn as free bases though some values may be those of a salt).

Each structure is given as a SMILES string.

One may read the melting point as the temperature, or range, at which the solid turns liquid. Turning to `Cc1ccc(S(=O)(=O)c2ncccc2NC(=O)N[C@@H](Cc2ccc(NC(=O)c3c(Cl)cccc3Cl)cc2)C(=O)O)cc1`, the melting point amounted to 180 °C. The result for `CC(C)c1cc([N+](=O)[O-])c(O)c(C(C)C)c1NC(=O)CN1CCN(CCSc2nc3ccccc3o2)CC1` reads 139 to 141 °C. The value for `O=C(O)N[C@@H](CC1CCCCC1)[C@@H](O)[C@@H]1CCCS1` was 118 to 119 °C; that for `O=C(OCc1ccncc1)c1cc2c(=O)n(Cc3ccccc3)c(=O)[nH]c2s1` was 248 to 250 °C; that for `Cc1ccc(-c2ccc(S(C)(=O)=O)cc2)n1-c1ccc(-c2ccco2)cc1` was 145 to 147 °C.

`Nc1nc(Cc2ccccc2)ncc1C=S` came in with a melting point of 136 to 139 °C. Turning to `OC1OC(Cn2cncn2)(c2ccc(Cl)cc2)c2ccccc21` (stereo not given), the melting point lay in the range of 215 to 217 °C. The result for `Cc1noc(NC(=O)N2CCN(c3cncc(-c4ccc(F)cc4F)c3)CC2)c1C` reads 147 to 148 °C. The value for `Cn1nc(Cl)c(Cl)c1S(=O)(=O)CCCl` was 56 to 59 °C. The result for `CS(=O)(=O)c1ccc(-c2cnn(-c3ccc(F)cc3)c(=O)c2N2CCCC2)cc1` reads 192 to 195 °C; that for `O=c1[nH]c(Cc2ccccc2)ccc1CCl`, 142 to 145 °C; that for `Cc1nc(-c2cccc(Cn3ccc4nc(C(C)C)n(Cc5ccc6ccc(-c7noc(C)n7)cc6c5)c4c3=O)c2)no1`, 108 to 109 °C. Compound `Cc1ccc2occ(-c3ccccc3)c2c1` returned a melting point of 99 to 108 °C.

Turning to `Cc1ccccc1-c1ccc(C(=O)N2Cc3ccc(C(=O)NCc4ccccc4C(F)(F)F)n3Cc3ccccc32)cc1C`, the melting point was 126 to 128 °C.

Compound `COc1ccc(CC(=O)c2c(O)c3cccnc3n(-c3ccccc3)c2=O)cc1` gave a melting point of 190 to 192 °C.

The compound `COc1ccc(N2CCN(C)CC2)c2c1CCC(C(=O)Nc1ccc(N3CCOCC3)cc1)C2` (stereo not given) had a melting point of 230 to 232 °C. The result for `O=C1c2ccccc2CCn2cnnc21` reads 187 °C; that for `NC(=O)N(O)C[C@H]1C[C@@H](c2ccccc2)C1`, 100 °C; that for `Cc1c([N+](=O)[O-])c([N+](=O)[O-])c(Cl)c2c1=NC(=O)C(=O)N=2`, 346 to 348 °C.

Regarding `OCc1c(F)cc(O)cc1Cl`, the melting point was in the range of 125 to 127 °C.

`COCc1cnc2c(NC(=O)c3c(Cl)cccc3Cl)cccc2c1N1CCNC1=O`: the melting point lay in the range of 210 to 212 °C. The value for `CN(C)CCCOc1ccc(C(=O)NN)cc1` was 79.5 to 81 °C; that for `CN1CCCC1=NC(=O)Nc1c(Br)cc(Br)cc1Br` was 165 to 168 °C; that for `S=C=Nc1ccc2oc(-c3ccc(CN4CCOCC4)s3)nc2c1` was 135 to 138 °C. Take `CCCCCCCCOC(=O)c1cnc(C(=O)O)cn1`: the melting point was 142 to 143 °C. As for `Cn1c(C(N)=O)nc([N+](=O)[O-])c1C#N`, the melting point lay in the range of 265 to 267 °C. The value for `COc1ccc(S(=O)(=O)NCc2ccc(O)cc2)cc1` was 161 to 162 °C; that for `CC(C)(N)c1ccc(-c2nc(Nc3ccc(-n4ccnc4)cc3)ncc2C#N)cc1` was 232 to 233 °C; that for `Cc1nn(C)c(NCC(C)(C)C)c1N` was 65 to 69 °C.

Compound `CCC(C(=O)N(CC)CC)n1cc(C)c(-c2ccccc2)n1` (stereo not given) had a melting point of 80 to 82 °C. The result for `COc1cc(CN2CCc3c(sc(N)c3C(=O)c3ccc4ccccc4c3)C2)cc(OC)c1OC` reads 127 to 129 °C; that for `Cc1cc(C)c(NC(=O)N(Cc2ccc3c(c2)Cc2ccccc2-3)C2CCCCC2)c(C)c1`, 147 to 149 °C. The result for `CN1Cc2c(C(N)=O)ncn2-c2ccc(F)cc2C1=O` reads 272 to 273 °C.

As to `COc1ccc(C(CC(=O)O)CC(=O)O)cc1`, the melting point lay within 147 to 150 °C. Regarding `C=C1CCCc2c(C(=O)OCC)n(C)c3cccc1c23`, the melting point was in the range of 45 to 49 °C.

For the compound `COc1cc2ncnc(NNC(N)=O)c2cc1OC`, the melting point is 247 to 249 °C.

The compound `OC(CCC1CCNCC1)c1cc(-c2ccccc2)nc2ccccc12` (stereo not given) registered a melting point of 162 °C. `COc1ccc(N2CCN(c3ncc(N)cn3)CC2)cc1`: the melting point was 157 °C. In turn, `CCOC(=O)c1sc(OCC)c2c1CCc1cnn(C)c1-2` came in with a melting point of 109 to 110 °C. The value for `Cn1c2ccc(Cl)cc2c2c3ccccc3c(OCC3CC3)nc21` was 141 to 142 °C.

`CCOc1nsc(S(C)(=O)=O)c1S(C)(=O)=O` registered a melting point of 158 to 160 °C. The result for `CCCn1nc2c(N)nc3ccccc3c2c1CCNC(=O)Nc1ccc(F)cc1` reads 201 to 202 °C.

`COC(=O)C(O)C(NC(=O)OCc1ccccc1)c1ccccc1` (stereo not given): the melting point fell in the range of 120 to 121 °C. The result for `CC1CC(=O)NN=C1c1ccc2c(ccc(=O)n2C)c1` (stereo not given) reads 248 to 251 °C; that for `CCN1CCC(C(=O)O)(S(=O)(=O)c2ccc(Oc3ccc(Cl)cc3)cc2)CC1`, 184 °C; that for `Cc1nc2c(N[C@@H]3c4ccccc4C[C@H]3O)cc(C(=O)N(C)C)cn2c1C` (relative stereo), 148 to 149 °C. The value for `O=C1CCC(=O)N1Nc1c(Cl)cc(Cl)cc1Cl` was 114 to 115 °C; that for `COc1ccccc1C(O)(CC#N)c1ccccc1OC` was 170 to 180 °C; that for `COc1cc2c(cc1C)CCN(C)C2C1(C2C=CCCC2)CCC1` (stereo not given) was 124 to 125 °C. Take `CCC1(CCOCCNC(=O)NC2CCCCC2)Nc2cnc(C)c(C)c2N1` (stereo not given): the melting point was 187 to 189 °C. The compound `CC(C)C[C@@H]1NC(=O)[C@@H]1O` registered a melting point of 141 to 142 °C. The value for `COC(=O)C(F)=CC1C(C(=O)OC(C#N)c2cccc(Oc3ccccc3)c2)C1(C)C` (stereo not given) was 70 °C; that for `Nc1c(Cl)cc2nc(O)c(O)nc2c1N` was greater than 300 °C. The value for `Cc1ccnc(Nc2nc(-c3c[nH]nc3C(=O)c3ccccc3)cs2)n1` was 254 to 255 °C; that for `CCOC(=O)c1cn(-c2c(F)cc(F)cc2F)c2nc(Cl)c(F)cc2c1=O` was 158 to 160 °C. The value for `Oc1ccc2c(-c3nc4ccc(O)cc4o3)cccc2c1` was 273 to 275 °C. With `COc1cc(C=O)ccc1Oc1nc(Nc2cccc(C(=O)O)c2)nc(Oc2ccccc2)n1`, the melting point lay in the range of 218 to 220 °C. The result for `NC(=O)C(N)Cc1ccc([N+](=O)[O-])cc1` (stereo not given) reads 160 to 162 °C. The result for `COc1ccc(CC(SC(C)=O)C(N)=O)cc1C(=O)NCc1ccc(C(F)(F)F)cc1` (stereo not given) reads 159 to 161 °C. In turn, `CN1C(=O)C(C)(C)c2ccc(C(=O)O)cc21` registered a melting point of 253 to 255 °C.

With `CON=C(c1ncno1)c1ccccc1COc1ccc(Cl)cc1`, the melting point was in the range of 96 to 97.5 °C. The result for `CC1=CSC(C)C(=O)N1` (stereo not given) reads 78 to 80 °C; that for `COC(=O)COc1ccc(C(C)CNS(=O)(=O)c2ccccc2)cc1F` (stereo not given), 112 to 113 °C. The value for `CCOC(=O)C1(O)c2ccccc2S(=O)(=O)N1C(C)(C)C` (stereo not given) was 93 to 95 °C; that for `CC(C)S(=O)(=O)c1cc(C#N)c(N)c(OCCCS(C)(=O)=O)c1` was 142 to 143 °C; that for `CC(C)(C)C1=CC(O)(C(F)(F)F)C=C(C(C)(C)C)C1=O` was 93 to 94 °C. In turn, `COC12CC(c3nnc(-c4cncc(Br)c4)o3)CN(C)C1Cc1cn(C)c3cccc2c13` (stereo not given) showed a melting point of 183 to 186 °C. The compound `CNc1nc(-c2ccc(OC)cc2)c(-c2cccnc2)s1` registered a melting point of 158 to 159 °C. As to `Clc1nc(Cl)nc(Oc2ccccc2)n1`, the melting point was in the range of 113 to 114 °C. The result for `CC(C)(CO)NS(=O)(=O)c1cc(NC(=O)c2cnn3c(C(F)F)cc(-c4ccc(C(F)(F)F)cc4)nc23)c(Cl)s1` reads 233 °C.

In turn, `CC(C)Cn1c(CNC(=O)OC(C)(C)C)c(-c2cccs2)c2cc(C(=O)O)ccc2c1=O` registered a melting point of 224 to 226 °C. The result for `CS(=O)c1ccc(C2=C(c3ccccc3)C(=O)OC2)cc1` (stereo not given) reads 149 to 150 °C; that for `CNC(=O)C1=CC(CF)(CF)Oc2cc(Cl)c(Cl)cc21`, 141 to 142 °C; that for `COc1ccc2c(-c3ccccc3)c(C(=O)c3ccc(Cl)cc3)sc2c1`, 115 °C. The value for `CC(c1ccc(O)cc1)c1ccc(O)cc1` was 123 to 125 °C; that for `COc1cc(Br)c2nc(-c3ccc(OC)c(F)c3)cc(Br)c2c1` was 178 to 179 °C; that for `CCOC(=O)C1CCc2c([nH]c3ccc(N)cc23)C1` (stereo not given) was 123 to 124 °C. The result for `N#Cc1ccc(C(=O)Nc2ccc(Cl)c([N+](=O)[O-])c2)cc1` reads 213 °C; that for `Cc1cc(NCc2ccc3c(c2)OCO3)nc(SCC#N)n1`, 115 to 118 °C; that for `N#CCCN1CCN(Cc2ccc3c(c2)-c2[nH]nc(-c4ccsc4)c2C3)CC1`, 156 to 157 °C. The compound `CCOC(=O)c1cc(=O)c(C(=O)c2ccccc2)co1` showed a melting point of 84 to 86 °C. The value for `CCOC(=O)CCc1ccc2c(c1)CC(CNS(=O)(=O)c1ccc(Cl)cc1)C2` (stereo not given) was 90 to 93 °C; that for `CC(C)(C)CC(C)(C)c1cc(-c2ccccc2)c(O)c(-n2nc3ccc(-c4ccccc4)cc3n2)c1` was 123 to 125 °C; that for `CCn1nc2c(N)nc3ccccc3c2c1CCCCOC(C)=O` was 128 to 129 °C. The result for `CCC(=O)NS(=O)(=O)c1ccc2c3c(cc([N+](=O)[O-])c2c1)NCC3CCl` (stereo not given) reads 173 to 177 °C; that for `COC(=O)[C@H](Cc1ccc(O)cc1)Nc1ccccc1C(=O)c1ccccc1`, 185 to 186 °C.

As for `CCCN1C(=O)OC2(CCN(CC=C(c3ccc(F)cc3)c3ccc(F)cc3)CC2)C1(C)O` (stereo not given), the melting point fell in the range of 128 to 129 °C. The value for `CCOC(=O)Cc1nc(-c2cc(C(C)(C)C)c(O)c(C(C)(C)C)c2)oc1C` was 103 to 105 °C; that for `O=CN1CCCN(C2=Nc3cc(Cl)ccc3Nc3ccccc32)CC1` was 152 to 155 °C. The value for `COCc1cnc2c(NC(=O)c3c(Cl)cccc3Cl)cccc2c1OCc1cccnc1` was 174 to 176 °C.
